Laboratory results taken from patent US20250115581A1, “SUBSTITUTED PIPERIDINES AS CK1A DEGRADERS” (Monte Rosa Therapeutics, Inc., priority 2022, published 2025).
pIC50: −log10 of the molar value.

Tests used:
CRBN/DDB1 = CRBN/DDB1 (Homo sapiens, UniProt Q96SW2); assay: HTRF binding assay (displacement of Cy5-thalidomide probe from CRBN/DDB1); settings: CRBN/DDB1 2.5 nM, Cy5-Thalidomide 100 nM, 30 min; geometric mean; read-out: HTRF_Thali_Disp_DR_geo_IC50
From the text: Binding of test compounds to CRBN/DDB1 was monitored in an HTRF assay using 1-[5-({2-[2-(2-{[2-(2,6-dioxopiperidin-3-yl)-1,3-dioxo-2,3-dihydro-1H-isoindol-4-yl]oxy}acetamido)ethoxy]ethyl}carbamoyl)pentyl]-3,3-dimethyl-2-[(1E,3E)-5-[(2E)-1,3,3-trimethyl-5-sulfo-2,3-dihydro-1H-indol-2-ylidene]penta-1,3-dien-1-yl]-3H-indol-1-ium-5-sulfonate as a fluorescent probe. In this assay, compounds displace the fluorescently labeled thalidomide-based probe bound to CRBN and fluorescence is monitored with increasing compound concentration. Assays were conducted in Greiner white 384 well HiBase plates (Cat. No 784075-25) in 10 μL total volume. A one pot detection solution of CRBN/DDB1 (2.5 nM), anti-His Terbium Cryptate Gold (1×, PerkinElmer Cat. #: 61HI2TLB), and Cy5-Thalidomide (100 nM, Tenova Cat.: T52461) was prepared in 20 mM HEPES, 20 mM NaCl, 0.2 mM TCEP, 0.2 mM EDTA, and 0.005% Tween20 was dispensed to each assay plate. Test compounds were stored in dry, ambient temperatures at 10 mM. A 10-point, 1:3 dilution series was prepared from 10 mM stock concentrations in Echo-compatible LDV plates. 10 nL of each compound dilution series was dispensed into assays wells using an Echo 650 (Labcyte inc. USA). 10 nL of 10 mM lenalidomide (Selleckchem Cat no. S1029) was transferred into the active-control wells for the assay and 10 nL of DMSO was transferred into the negative control wells. The assay was then allowed to incubate for 30 min at ambient temperature after transferring the test compounds. Plate measurements were taken on a Pherastar FSX (BMG Labtech, Germany) using the HTRF Red filter (Ex. 337 nm, em1: 620 nm, em2: 665 nm) (Flashes: 50, Integration time: 60-400 μs, Z-height: 10 mm, Ratio-multiplier: 10,000). Analysis, HTRF ratio and IC50 values were derived using KNIME analytics (KNIME Zurich) transformation and fitting within Collaborative Drug Discovery (Collaborative Drug Discovery USA) using a 4-parameter logistic fit. HTRF ratio calculation was performed using the following formula: […]
where em665 nm represents the measured emission at 665 nm upon excitation at 337 nm and em620 nm the measured emission at 620 nm upon excitation at 337 nm. The 4 parameter logistic fitting model was performed using the following formula: […]
where Y represents the HTRF ratio response (as defined previously), X the compound concentration in μM, Ymin the minimum response plateau, Ymax the maximum response plateau, IC50 the concentration of […] that gives a response half way between Ymin and Ymax and HillSlope the steepness of the family of curves. No fitting model constraints was applied on Ymin, or Ymax whilst IC50>0 and −0.5>HillSlope>−3 Cheng-Prusoff transformation
Ki values were derived from the geometric mean of the IC50 values using the Cheng-Prusoff transformation:
where [L] represents the concentration of fluorescent probe in […], Kd the affinity (binding constant) of the fluorescent probe in units of μM and IC50 the concentration of agonist that gives a response halfway between Ymin and Ymax (as described in 1.2.1)
Analysis and IC50 values were derived using KNIME analytics (KNIME, Zurich) transformation and fitting within Collaborative Drug Discovery (Collaborative Drug Discovery, USA) as described in 1.2.1. Ki values were derived from the geometric mean of the IC50 values using the Cheng-Prusoff transformation as described in 2.2.2. Data was visualized in GraphPad Prism 8.1.2 (GraphPad, USA) and reported as mean and standard deviation. Microsoft Office Excel 2012 (Redmond, WA) was used for calculation of mean and standard deviation.
IC50 data are reported in Table 3 for compounds in Table 1. In Table 3 below, According to the code, A represents a IC50 value of ≤0.1 μM, B represents a IC50 value >0.1 μM and ≤1 μM, C represents an IC50 value >1 μM.

CK1α = biological target: T1, CK1α (Homo sapiens, UniProt P48729+Q96SW2); assay: CK1α NanoBit Assay (HiBiT-tagged CSNK1A1 in HEK293 cells, luminescence); assay type: cell-based; settings: 24 h
T1 construct: HEK293 clonal lines with CRISPR KI HiBiT tag on CSNK1A1; host or cells: HEK293 clonal line, CRISPR knock-in HiBiT at the CSNK1A1 locus, stably expressing LgBiT
T1 sequence (P48729 whole entry): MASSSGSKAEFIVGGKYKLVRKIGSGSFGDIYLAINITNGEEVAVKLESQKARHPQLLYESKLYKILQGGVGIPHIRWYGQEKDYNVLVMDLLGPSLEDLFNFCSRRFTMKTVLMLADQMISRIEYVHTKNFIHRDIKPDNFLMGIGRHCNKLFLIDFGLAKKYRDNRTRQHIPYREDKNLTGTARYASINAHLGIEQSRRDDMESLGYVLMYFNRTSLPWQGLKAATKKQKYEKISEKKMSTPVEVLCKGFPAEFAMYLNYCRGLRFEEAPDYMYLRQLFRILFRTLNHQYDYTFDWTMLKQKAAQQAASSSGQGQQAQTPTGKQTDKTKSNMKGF
T1 sequence (Q96SW2 whole entry): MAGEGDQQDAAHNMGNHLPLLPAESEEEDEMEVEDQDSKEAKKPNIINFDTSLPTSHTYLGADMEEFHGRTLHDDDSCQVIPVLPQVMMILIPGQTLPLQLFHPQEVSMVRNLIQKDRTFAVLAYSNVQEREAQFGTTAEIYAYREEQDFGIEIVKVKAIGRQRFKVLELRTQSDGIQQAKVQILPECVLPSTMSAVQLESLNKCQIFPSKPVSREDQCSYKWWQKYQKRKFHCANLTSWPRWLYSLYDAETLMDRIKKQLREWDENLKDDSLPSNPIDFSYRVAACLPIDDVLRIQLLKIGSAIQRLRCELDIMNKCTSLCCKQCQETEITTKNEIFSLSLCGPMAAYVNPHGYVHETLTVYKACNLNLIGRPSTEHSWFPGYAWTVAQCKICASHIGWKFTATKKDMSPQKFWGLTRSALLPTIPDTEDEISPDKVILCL
T1 sequence (Q16531 whole entry partner): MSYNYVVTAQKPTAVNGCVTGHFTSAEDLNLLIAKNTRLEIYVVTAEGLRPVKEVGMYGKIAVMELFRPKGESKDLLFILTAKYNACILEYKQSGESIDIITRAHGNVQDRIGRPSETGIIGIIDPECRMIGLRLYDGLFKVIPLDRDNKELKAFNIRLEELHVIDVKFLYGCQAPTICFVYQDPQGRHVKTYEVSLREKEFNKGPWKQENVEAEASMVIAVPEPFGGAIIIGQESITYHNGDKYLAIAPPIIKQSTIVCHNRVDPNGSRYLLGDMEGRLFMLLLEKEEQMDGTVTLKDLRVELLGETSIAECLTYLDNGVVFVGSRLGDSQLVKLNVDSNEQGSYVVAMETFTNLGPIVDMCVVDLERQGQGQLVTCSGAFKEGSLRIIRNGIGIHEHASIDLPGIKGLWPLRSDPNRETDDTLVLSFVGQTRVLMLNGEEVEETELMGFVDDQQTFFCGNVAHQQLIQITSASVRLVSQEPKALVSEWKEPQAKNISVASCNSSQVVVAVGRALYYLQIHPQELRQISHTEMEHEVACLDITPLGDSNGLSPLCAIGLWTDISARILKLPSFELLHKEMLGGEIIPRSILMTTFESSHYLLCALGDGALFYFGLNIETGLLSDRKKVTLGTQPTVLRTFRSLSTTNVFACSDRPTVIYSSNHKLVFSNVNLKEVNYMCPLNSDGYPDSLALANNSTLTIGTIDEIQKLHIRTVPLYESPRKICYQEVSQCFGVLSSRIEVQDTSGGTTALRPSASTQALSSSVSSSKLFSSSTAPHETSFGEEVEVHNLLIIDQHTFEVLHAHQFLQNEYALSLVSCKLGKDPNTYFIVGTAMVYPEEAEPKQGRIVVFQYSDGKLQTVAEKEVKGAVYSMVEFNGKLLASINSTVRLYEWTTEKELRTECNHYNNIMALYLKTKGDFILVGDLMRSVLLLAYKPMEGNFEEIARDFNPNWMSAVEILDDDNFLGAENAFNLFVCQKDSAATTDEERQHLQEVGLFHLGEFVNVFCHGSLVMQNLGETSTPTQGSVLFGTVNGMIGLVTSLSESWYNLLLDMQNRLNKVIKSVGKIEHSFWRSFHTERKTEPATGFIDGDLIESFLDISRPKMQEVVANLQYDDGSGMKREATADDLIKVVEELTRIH
Protocol: HEK293 clonal lines with CRISPR KI HiBiT tag on CSNK1A1 and stably expressing LgBiT protein were obtained from Promega (Madison, WI). Cells were plated at 5000 cells per well using Multiflo (BioTek) in 384-well white solid bottom plates (Corning, 3570BC) in 25 μl volume in DMEM media (DMEM, high glucose, HEPES, no phenol red (ThermoFisher Scientific, 21063029)) containing 10% FBS (Corning, 35-075-CV), 1% Penicillin/Streptomycin ((ThermoFisher Scientific, 15140-122), and 0.2% Endurazine (Nano-Glo Endurazine Live Cell Substrate (Promega, N2571)). Cells were incubated for 16 hours at 37° C., 5% CO2. Depending on experiment 25 or 75 nL of a compound at 10 mM were added into the plate using an Echo® 650 liquid handler (Labcyte) to achieve final concentration of 10 or 30 μM in wells. Cells were incubated at 37° C., 5% CO2 for 24 hours and then signal was read on a Pherastar FSX using “LUM plus” optic module.
Data analysis was performed in Scinamic (Scinamic, Cambridge, MA). Luminescence response (R) was calculated by the formula: response=100*(S−N)/(P−N) where S is the signal of the well, N and P the mean negative and positive control values respectively of the same plate. The luminescence response was then fitted in Scinamic using a 3-parameter agonist logistic fit (hillslope=1, EC50>0, top/bottom unconstrained).
DC50 data are reported in Table 2 for compounds in Table 1. In Table 2 below, According to the code, A represents a DC50 value of ≤0.1 μM, B represents a DC50 value >0.1 μM and ≤1 μM, C represents an DC50 value >1 μM.

Chain of CRBN/DDB1 (Q96SW2 whole entry): as the sequence (Q96SW2 whole entry) above
Chain of CRBN/DDB1 (Q16531 whole entry partner): as the sequence (Q16531 whole entry partner) above

Row | SMILES | pIC50 (CRBN/DDB1) | DC50 (CK1α) [µM]
1 | Cc1ccc(N2C(=O)N(c3ccc4c(c3)CN(C3CCC(=O)NC3=O)C4=O)C[C@H]2C)cn1 (stereo partly drawn) [Compound 151, 3-(5-((R)-4-methyl-3-(6-methylpyridin-3-yl)-2-oxoimidazolidin-1-yl)-1-oxoisoindolin-2-yl)piperidine-2,6-dione] | 6.00 to 7.00 | ≤ 0.1
2 | N#Cc1cccc(N2CCN(c3ccc4c(c3)CN(C3CCC(=O)NC3=O)C4=O)C2=O)c1 (stereo not shown) [Compound 148, 3-(3-(2-(2,6-dioxopiperidin-3-yl)-1-oxoisoindolin-5-yl)-2-oxoimidazolidin-1-yl)benzonitrile] |  | ≤ 0.1
3 | CC1C(C)N(c2ccc3c(c2)CN(C2CCC(=O)NC2=O)C3=O)C(=O)N1c1ccccc1 (stereo not shown) [Compound 113, 3-(5-(4,5-dimethyl-2-oxo-3-phenylimidazolidin-1-yl)-1-oxoisoindolin-2-yl)piperidine-2,6-dione] | 6.00 to 7.00 | > 1
4 | C[C@@H]1CN(c2ccc3c(c2)CN(C2CCC(=O)NC2=O)C3=O)C(=O)N1c1cnccn1 (stereo partly drawn) [Compound 132, 3-(5-((R)-4-methyl-2-oxo-3-(pyrazin-2-yl)imidazolidin-1-yl)-1-oxoisoindolin-2-yl)piperidine-2,6-dione] | 6.00 to 7.00 | ≤ 0.1
5 | COCc1cc(C)ccc1N1CCN(c2ccc3c(c2)CN(C2CCC(=O)NC2=O)C3=O)C1=O (stereo not shown) [Compound 166, 3-(5-(3-(2-(methoxymethyl)-4-methylphenyl)-2-oxoimidazolidin-1-yl)-1-oxoisoindolin-2-yl)piperidine-2,6-dione] | 6.00 to 7.00 | 0.1 to 1
6 | C[C@@H]1CN(c2ccc3c(c2)CN(C2CCC(=O)NC2=O)C3=O)C(=O)N1c1ncccn1 (stereo partly drawn) [Compound 182, 3-(5-((R)-4-methyl-2-oxo-3-(pyrimidin-2-yl)imidazolidin-1-yl)-1-oxoisoindolin-2-yl)piperidine-2,6-dione] | 6.00 to 7.00 | > 1
7 | Cc1ccc(N2C(=O)N(c3ccc4c(c3)CN(C3CCC(=O)NC3=O)C4=O)CC2C)cn1 (stereo not shown) [Compound 122, 3-(5-(4-methyl-3-(6-methylpyridin-3-yl)-2-oxoimidazolidin-1-yl)-1-oxoisoindolin-2-yl)piperidine-2,6-dione] | < 6.00 | 0.1 to 1
8 | O=C1CCC(N2Cc3cc(N4CCN(c5cccc6c5CCO6)C4=O)ccc3C2=O)C(=O)N1 (stereo not shown) [Compound 140, 3-(5-(3-(2,3-dihydrobenzofuran-4-yl)-2-oxoimidazolidin-1-yl)-1-oxoisoindolin-2-yl)piperidine-2,6-dione] | 6.00 to 7.00 | ≤ 0.1

The next lines start with the values.

Row | pIC50 (CRBN/DDB1) | DC50 (CK1α) [µM] | SMILES
9 | 6.00 to 7.00 | ≤ 0.1 | CC1CN(c2ccc3c(c2)CN(C2CCC(=O)NC2=O)C3=O)C(=O)N1c1ccc(C(F)(F)F)nc1 (stereo not shown) [Compound 121, 3-(5-(4-methyl-2-oxo-3-(6-(trifluoromethyl)pyridin-3-yl)imidazolidin-1-yl)-1-oxoisoindolin-2-yl)piperidine-2,6-dione]
10 | < 6.00 | 0.1 to 1 | O=C1CCC(N2Cc3cc(N4CCN(C5CCC5)C4=O)ccc3C2=O)C(=O)N1 (stereo not shown) [Compound 159, 3-(5-(3-cyclobutyl-2-oxoimidazolidin-1-yl)-1-oxoisoindolin-2-yl)piperidine-2,6-dione]
11 | ≥ 7.00 | > 1 | CN1Cc2cccc(N3CCN(c4ccc5c(c4)CN(C4CCC(=O)NC4=O)C5=O)C3=O)c2C1 (stereo not shown) [Compound 172, 3-(5-(3-(2-methylisoindolin-4-yl)-2-oxoimidazolidin-1-yl)-1-oxoisoindolin-2-yl)piperidine-2,6-dione]
12 | 6.00 to 7.00 | ≤ 0.1 | COCc1ccc(N2CCN(c3ccc4c(c3)CN(C3CCC(=O)NC3=O)C4=O)C2=O)cc1 (stereo not shown) [Compound 128, 3-(5-(3-(4-(methoxymethyl)phenyl)-2-oxoimidazolidin-1-yl)-1-oxoisoindolin-2-yl)piperidine-2,6-dione]
13 | < 6.00 | > 1 | O=C1CCC(N2Cc3cc(N4CCN(c5cccc6nc[nH]c56)C4=O)ccc3C2=O)C(=O)N1 (stereo not shown) [Compound 175, 3-(5-(3-(1H-benzo[d]imidazol-7-yl)-2-oxoimidazolidin-1-yl)-1-oxoisoindolin-2-yl) piperidine-2,6-dione]
14 | 6.00 to 7.00 | 0.1 to 1 | CC1CN(c2ccccc2)C(=O)N1c1ccc2c(c1)CN(C1CCC(=O)NC1=O)C2=O (stereo not shown) [Compound 117, 3-(5-(5-methyl-2-oxo-3-phenylimidazolidin-1-yl)-1-oxoisoindolin-2-yl)piperidine-2,6-dione]
15 | < 6.00 | ≤ 0.1 | CC1(c2ccc(N3CCN(c4ccc5c(c4)CN(C4CCC(=O)NC4=O)C5=O)C3=O)cc2)CC1 (stereo not shown) [Compound 135, 3-(5-(3-(4-(1-methylcyclopropyl)phenyl)-2-oxoimidazolidin-1-yl)-1-oxoisoindolin-2-yl)piperidine-2,6-dione]
16 | 6.00 to 7.00 | ≤ 0.1 | CC(C)c1ccc(N2CCN(c3ccc4c(c3)CN(C3CCC(=O)NC3=O)C4=O)C2=O)cc1 (stereo not shown) [Compound 120, 3-(5-(3-(4-isopropylphenyl)-2-oxoimidazolidin-1-yl)-1-oxoisoindolin-2-yl)piperidine-2,6-dione]
17 |  | > 1 | Cc1cc(N2CCN(c3ccc4c(c3)CN(C3CCC(=O)NC3=O)C4=O)C2=O)ccn1 (stereo not shown) [Compound 103, 3-(5-(3-(2-methylpyridin-4-yl)-2-oxoimidazolidin-1-yl)-1-oxoisoindolin-2-yl)piperidine-2,6-dione]
18 |  | ≤ 0.1 | O=C1CCC(N2Cc3cc(N4CCN(c5ccc(C6(C(F)(F)F)CC6)cc5)C4=O)ccc3C2=O)C(=O)N1 (stereo not shown) [Compound 147, 3-(1-oxo-5-(2-oxo-3-(4-(1-(trifluoromethyl)cyclopropyl)phenyl)imidazolidin-1-yl)isoindolin-2-yl)piperidine-2,6-dione]
19 |  | ≤ 0.1 | Cc1ccc(N2CCN(c3ccc4c(c3)CN(C3CCC(=O)NC3=O)C4=O)C2=O)nc1 (stereo not shown) [Compound 141, 3-(5-(3-(5-methylpyridin-2-yl)-2-oxoimidazolidin-1-yl)-1-oxoisoindolin-2-yl)piperidine-2,6-dione]
